Data: patent publication US11446287B2, “Compounds and methods for EP300 or CBP modulation and indications therefor” (Opna Immuno-Oncology SA, priority 2019, dated 2022)

What follows are compounds tested against T1, Recombinant human CBP containing the bromodomain (CBP-BD (1043-1159)) (Homo sapiens, UniProt Q92793) (assay: CBP Alphascreen binding assay). Conditions: read-out: CREBBP (CBP) IC50.
T1 construct: Recombinant human CBP bromodomain (CBP-BD (1043-1159)); made in house; host or cells: E. coli BL21-CodonPlus (DE3), modified pET vector
Method in brief: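 Buffer: 50 mM HEPES pH 7.5, 50 mM NaCl, 0.01% BSA, 0.01% Triton X-100, 2 mM DTT. The signal was normalised to plate controls and fitted with a four-parameter curve to give IC50.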

T1 sequence (Q92793 1081-1197): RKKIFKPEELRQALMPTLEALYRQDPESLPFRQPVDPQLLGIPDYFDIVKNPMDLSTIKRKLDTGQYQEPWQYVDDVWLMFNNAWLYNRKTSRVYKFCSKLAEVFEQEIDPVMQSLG

Compound	IC50
CCc1onc(C)c1-c1cnc2c(c1)c(-c1ccc(C(=O)O)cc1OC(F)(F)F)cn2C1CCOCC1 [P-0401, 4-(5-(5-ethyl-3-methylisoxazol-4-yl)-1-(tetrahydro-2H-pyran-4-yl)-1H-pyrrolo[2,3-b]pyridin-3-yl)-3-(trifluoromethoxy)benzoic acid]	0.0001 to 1 µM
Cc1cc(C(=O)O)cc(OC(C)C)c1-c1cn(C2CCOCC2)c2ncc(-c3c(C)noc3C)cc12 [P-0402, 4-(5-(3,5-dimethylisoxazol-4-yl)-1-(tetrahydro-2H-pyran-4-yl)-1H-pyrrolo[2,3-b]pyridin-3-yl)-3-isopropoxy-5-methylbenzoic acid]	0.0001 to 1 µM
Cc1noc(C)c1-c1cnc2c(c1)c(-c1ccc(C(=O)O)cc1OC(C)C)cn2C1(C)CCOCC1 [P-0403, 4-(5-(3,5-dimethylisoxazol-4-yl)-1-(4-methyltetrahydro-2H-pyran-4-yl)-1H-pyrrolo[2,3-b]pyridin-3-yl)-3-isopropoxybenzoic acid]	0.0001 to 1 µM
Cc1noc(C)c1-c1cnc2c(c1)c(-c1c(Cl)cc(C(=O)O)cc1OC(C)C)cn2C1(C)CCOCC1 [P-0404, 3-chloro-4-(5-(3,5-dimethylisoxazol-4-yl)-1-(4-methyltetrahydro-2H-pyran-4-yl)-1H-pyrrolo[2,3-b]pyridin-3-yl)-5-isopropoxybenzoic acid]	0.0001 to 1 µM
CCOc1nc(C(=O)O)ccc1-c1cn(C2(C)CCOCC2)c2ncc(-c3c(C)noc3C)cc12 [P-0405, 5-(5-(3,5-dimethylisoxazol-4-yl)-1-(4-methyltetrahydro-2H-pyran-4-yl)-1H-pyrrolo[2,3-b]pyridin-3-yl)-6-ethoxypicolinic acid]	0.0001 to 1 µM
CCOc1nc(C(=O)O)c(Cl)cc1-c1cn([C@H]2CCOC2)c2ncc(-c3c(C)noc3C)cc12 [P-0406, (S)-3-chloro-5-(5-(3,5-dimethylisoxazol-4-yl)-1-(tetrahydrofuran-3-yl)-1H-pyrrolo[2,3-b]pyridin-3-yl)-6-ethoxypicolinic acid]	0.0001 to 1 µM
Cc1noc(C)c1-c1cnc2c(c1)c(-c1ccc(C(=O)O)cc1OC(C)C)cn2C1(C)CCOC1 (stereo not shown) [P-0407, 4-(5-(3,5-dimethylisoxazol-4-yl)-1-(3-methyltetrahydrofuran-3-yl)-1H-pyrrolo[2,3-b]pyridin-3-yl)-3-isopropoxybenzoic acid]	0.0001 to 1 µM
Cc1noc(C)c1-c1cnc2c(c1)c(-c1c(Cl)cc(C(=O)O)cc1OC(C)C)cn2C1(C)CCOC1 (stereo not shown) [P-0408, 3-chloro-4-(5-(3,5-dimethylisoxazol-4-yl)-1-(3-methyltetrahydrofuran-3-yl)-1H-pyrrolo[2,3-b]pyridin-3-yl)-5-isopropoxybenzoic acid]	0.0001 to 1 µM
Cc1noc(C)c1-c1cnc2c(c1)c(-c1c(Cl)cc(C(=O)O)cc1OC1CC1)cn2-c1ncccc1C#N [P-0409, 3-chloro-4-(1-(3-cyanopyridin-2-yl)-5-(3,5-dimethylisoxazol-4-yl)-1H-pyrrolo[2,3-b]pyridin-3-yl)-5-cyclopropoxybenzoic acid]	0.0001 to 1 µM
Cc1noc(C)c1-c1cnc2c(c1)c(-c1c(F)cc(C(=O)O)cc1OC1CCC1)cn2C1CCOCC1 [P-0410, 3-cyclobutoxy-4-(5-(3,5-dimethylisoxazol-4-yl)-1-(tetrahydro-2H-pyran-4-yl)-1H-pyrrolo[2,3-b]pyridin-3-yl)-5-fluorobenzoic acid]	0.0001 to 1 µM
CCOc1nc(C(=O)O)cc(C)c1-c1cn(C2CCOCC2)c2ncc(-c3c(C)noc3C)cc12 [P-0411, 5-(5-(3,5-dimethylisoxazol-4-yl)-1-(tetrahydro-2H-pyran-4-yl)-1H-pyrrolo[2,3-b]pyridin-3-yl)-6-ethoxy-4-methylpicolinic acid]	0.0001 to 1 µM
CCOc1nc(C(=O)O)cc(C)c1-c1cn(-c2ccc(F)cc2F)c2ncc(-c3c(C)noc3C)cc12 [P-0412, 5-(1-(2,4-difluorophenyl)-5-(3,5-dimethylisoxazol-4-yl)-1H-pyrrolo[2,3-b]pyridin-3-yl)-6-ethoxy-4-methylpicolinic acid]	0.0001 to 1 µM
Cc1nnn(C)c1-c1cnc2c(c1)c(-c1ccc(C(=O)O)cc1OC1CC1)cn2C1CCOCC1 [P-0413, 3-cyclopropoxy-4-(5-(1,4-dimethyl-1H-1,2,3-triazol-5-yl)-1-(tetrahydro-2H-pyran-4-yl)-1H-pyrrolo[2,3-b]pyridin-3-yl)benzoic acid]	0.0001 to 1 µM
CCOc1cc(C(=O)O)nc(OCC)c1-c1cn(-c2ccccc2F)c2ncc(-c3c(C)noc3C)cc12 [P-0414, 5-(5-(3,5-dimethylisoxazol-4-yl)-1-(2-fluorophenyl)-1H-pyrrolo[2,3-b]pyridin-3-yl)-4,6-diethoxypicolinic acid]	0.0001 to 1 µM
CCOc1cc(C(=O)O)nc(OCC)c1-c1cn([C@@H](C)c2ccccn2)c2ncc(-c3c(C)noc3C)cc12 [P-0415, (S)-5-(5-(3,5-dimethylisoxazol-4-yl)-1-(1-(pyridin-2-yl)ethyl)-1H-pyrrolo[2,3-b]pyridin-3-yl)-4,6-diethoxypicolinic acid]	0.0001 to 1 µM
CCOc1nc(C(=O)O)c(C)cc1-c1cn(C(C2CC2)C2CC2)c2ncc(-c3c(C)noc3C)cc12 [P-0416, 5-(1-(dicyclopropylmethyl)-5-(3,5-dimethylisoxazol-4-yl)-1H-pyrrolo[2,3-b]pyridin-3-yl)-6-ethoxy-3-methylpicolinic acid]	0.0001 to 1 µM

Compound	IC50
CCOc1nc(C(=O)O)cc(C)c1-c1cn(C(C2CC2)C2CC2)c2ncc(-c3c(C)noc3C)cc12 [P-0417, 5-(1-(dicyclopropylmethyl)-5-(3,5-dimethylisoxazol-4-yl)-1H-pyrrolo[2,3-b]pyridin-3-yl)-6-ethoxy-4-methylpicolinic acid]	0.0001 to 1 µM
Cc1noc(C)c1-c1cnc2c(c1)c(-c1ccnc(C(=O)O)c1C)cn2C(C1CC1)C1CC1 [P-0418, 4-(1-(dicyclopropylmethyl)-5-(3,5-dimethylisoxazol-4-yl)-1H-pyrrolo[2,3-b]pyridin-3-yl)-3-methylpicolinic acid]	0.0001 to 1 µM
Cc1noc(C)c1-c1cnc2c(c1)c(-c1ccnc(C(=O)O)c1C)cn2C1CCOCC1 [P-0419, 4-(5-(3,5-dimethylisoxazol-4-yl)-1-(tetrahydro-2H-pyran-4-yl)-1H-pyrrolo[2,3-b]pyridin-3-yl)-3-methylpicolinic acid]	0.0001 to 1 µM
CCOc1cc(C(=O)O)nc(OCC)c1-c1cn(C(C2CC2)C2CC2)c2ncc(-c3c(C)noc3C)cc12 [P-0420, 5-(1-(dicyclopropylmethyl)-5-(3,5-dimethylisoxazol-4-yl)-1H-pyrrolo[2,3-b]pyridin-3-yl)-4,6-diethoxypicolinic acid]	0.0001 to 1 µM
CCOc1cc(C(=O)O)nc(OCC)c1-c1cn(-c2ncccc2C#N)c2ncc(-c3c(C)noc3C)cc12 [P-0421, 5-(1-(3-cyanopyridin-2-yl)-5-(3,5-dimethylisoxazol-4-yl)-1H-pyrrolo[2,3-b]pyridin-3-yl)-4,6-diethoxypicolinic acid]	0.0001 to 1 µM
CCOc1cc(C(=O)O)nc(OCC)c1-c1cn(-c2ncccc2C(N)=O)c2ncc(-c3c(C)noc3C)cc12 [P-0422, 5-(1-(3-carbamoylpyridin-2-yl)-5-(3,5-dimethylisoxazol-4-yl)-1H-pyrrolo[2,3-b]pyridin-3-yl)-4,6-diethoxypicolinic acid]	0.0001 to 1 µM
CCOc1cc(C(=O)O)nc(OCC)c1-c1cn(-c2ccc(C#N)cc2F)c2ncc(-c3c(C)noc3C)cc12 [P-0423, 5-(1-(4-cyano-2-fluorophenyl)-5-(3,5-dimethylisoxazol-4-yl)-1H-pyrrolo[2,3-b]pyridin-3-yl)-4,6-diethoxypicolinic acid]	0.0001 to 1 µM
CCOc1cc(C(=O)O)nc(OCC)c1-c1cn(-c2cnc(C3CC3)nc2)c2ncc(-c3c(C)noc3C)cc12 [P-0424, 5-(1-(2-cyclopropylpyrimidin-5-yl)-5-(3,5-dimethylisoxazol-4-yl)-1H-pyrrolo[2,3-b]pyridin-3-yl)-4,6-diethoxypicolinic acid]	0.0001 to 1 µM
CCOc1cc(C(=O)O)nc(OCC)c1-c1cn(C2CCC(F)(F)CC2)c2ncc(-c3c(C)noc3C)cc12 [P-0425, 5-(1-(4,4-difluorocyclohexyl)-5-(3,5-dimethylisoxazol-4-yl)-1H-pyrrolo[2,3-b]pyridin-3-yl)-4,6-diethoxypicolinic acid]	0.0001 to 1 µM
CCOc1cc(C(=O)O)ncc1-c1cn(C(C2CC2)C2CC2)c2ncc(-c3c(C)noc3C)cc12 [P-0427, 5-(1-(dicyclopropylmethyl)-5-(3,5-dimethylisoxazol-4-yl)-1H-pyrrolo[2,3-b]pyridin-3-yl)-4-ethoxypicolinic acid]	0.0001 to 1 µM
CCOc1cc(C(=O)O)ncc1-c1cn(C2CCOCC2)c2ncc(-c3c(C)noc3C)cc12 [P-0428, 5-(5-(3,5-dimethylisoxazol-4-yl)-1-(tetrahydro-2H-pyran-4-yl)-1H-pyrrolo[2,3-b]pyridin-3-yl)-4-ethoxypicolinic acid]	0.0001 to 1 µM
CCOc1cc(C(=O)O)nc(OCC)c1-c1cn(-c2cn(C(F)F)nc2C)c2ncc(-c3c(C)noc3C)cc12 [P-0429, 5-(1-(1-(difluoromethyl)-3-methyl-1H-pyrazol-4-yl)-5-(3,5-dimethylisoxazol-4-yl)-1H-pyrrolo[2,3-b]pyridin-3-yl)-4,6-diethoxypicolinic acid]	0.0001 to 1 µM
CCOc1cc(C(=O)O)nc(OCC)c1-c1cn(-c2cn(CC)nc2C)c2ncc(-c3c(C)noc3C)cc12 [P-0430, 5-(5-(3,5-dimethylisoxazol-4-yl)-1-(1-ethyl-3-methyl-1H-pyrazol-4-yl)-1H-pyrrolo[2,3-b]pyridin-3-yl)-4,6-diethoxypicolinic acid]	0.0001 to 1 µM
CCOc1cc(C(=O)O)nc(OCC)c1-n1cc(-c2ccc(F)cc2F)c2ncc(-c3c(C)noc3C)cc21 [P-0431, 5-(3-(2,4-difluorophenyl)-6-(3,5-dimethylisoxazol-4-yl)-1H-pyrrolo[3,2-b]pyridin-1-yl)-4,6-diethoxypicolinic acid]	0.0001 to 1 µM
CCOc1cc(C(=O)OC)nc(OCC)c1-c1cn(-c2ccc(F)cc2F)c2ncc(-c3c(C)noc3C)cc12 [P-0432, methyl 5-(1-(2,4-difluorophenyl)-5-(3,5-dimethylisoxazol-4-yl)-1H-pyrrolo[2,3-b]pyridin-3-yl)-4,6-diethoxypicolinate]	0.0001 to 1 µM
